Test results: patent US12421212B2, “Substituted benzenecarboxamides as IL-17A modulators” (DiCE Alpha, Inc., priority 2019, dated 2025)

Biological target: T1, IL-17A/A (Homo sapiens, UniProt Q16552)
T1 construct: purchased Genscript Z03228
T1 sequence (Q16552 24-155): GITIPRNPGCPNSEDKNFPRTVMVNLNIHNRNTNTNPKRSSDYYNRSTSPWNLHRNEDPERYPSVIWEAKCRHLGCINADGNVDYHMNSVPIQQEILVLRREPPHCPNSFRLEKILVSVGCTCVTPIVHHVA
Test: IL-17A/A HEK-Blue Cell Assay
Format: cell-based
Conditions: HEK-Blue IL-17A reporter cell line, SEAP readout at A630, 20 hours incubation with IL-17A/A; top concentration 10 uM, 1 uM or 0.3 uM

Row | Compound | IL-17A/A inhibition (pIC50)
1 | CCC(=O)N[C@@H](C(=O)N1C[C@H](C)N(C(C)C)[C@@H](C)C1)[C@@H](C)c1ccc(NC(=O)[C@@H](NC(=O)c2nonc2CC)[C@H]2CC[C@H](C)CC2)c(F)c1 [Compound 449] | A (compounds having a pIC50 of greater than or equal 8 as A)
2 | CCC(=O)N[C@H](Cc1ccc(NC(=O)[C@@H](NC(=O)c2nonc2CC)[C@H]2CC[C@H](C)CC2)c(F)c1)C(=O)N1CCN(C)[C@@H](C)C1 [Compound 462] | A (compounds having a pIC50 of greater than or equal 8 as A)
3 | CCC(=O)N[C@@H](C(=O)N1CCN(CC)C(C)(C)C1)[C@@H](C)c1ccc(NC(=O)[C@@H](NC(=O)c2nonc2CC)[C@H]2CC[C@H](C)CC2)c(F)c1 [Compound 466] | A (compounds having a pIC50 of greater than or equal 8 as A)

Same assay, conditions: HEK-Blue IL-17A reporter cell line, SEAP readout at A630, 20 hours incubation with IL-17A/A; top concentration 10 uM, 1 uM or 0.3 uM; read-out: IL-17A/A inhibition (pIC50) (converted)

Row | Compound | IC50 [nM]
4 | CCC(=O)N[C@@H](C(=O)N1C[C@H](C)N(C(=O)CC)[C@@H](C)C1)[C@@H](C)c1ccc(NC(=O)[C@@H](NC(=O)c2nonc2CC)[C@H]2CC[C@H](C)CC2)c(F)c1 [Compound 448] | < 10
5 | CCC(=O)N[C@@H](C(=O)N1CCN(Cc2ccccn2)CC1)[C@@H](C)c1ccc(NC(=O)[C@@H](NC(=O)c2nonc2CC)[C@H]2CC[C@H](C)CC2)c(F)c1 [Compound 450] | < 10
6 | CCC(=O)N[C@@H](C(=O)N1C[C@@H](C)N(C)[C@H](C)C1)[C@@H](C)c1ccc(NC(=O)[C@@H](NC(=O)c2nonc2CC)[C@H]2CC[C@H](C)CC2)c(F)c1 [Compound 451] | < 10
7 | CCC(=O)N[C@@H](C(=O)N1C[C@@H](C)N(C)[C@@H](C)C1)[C@@H](C)c1ccc(NC(=O)[C@@H](NC(=O)c2nonc2CC)[C@H]2CC[C@H](C)CC2)c(F)c1 [Compound 452] | < 10
8 | CCC(=O)N[C@@H](C(=O)N1CCN[C@H](C)C1)[C@@H](C)c1ccc(NC(=O)[C@@H](NC(=O)c2nonc2CC)[C@H]2CC[C@H](C)CC2)c(F)c1 [Compound 454] | 100 to 10000
9 | CCC(=O)N[C@@H](C(=O)N(C)Cc1cncn1C)[C@@H](C)c1ccc(NC(=O)[C@@H](NC(=O)c2nonc2CC)[C@H]2CC[C@H](C)CC2)c(F)c1 [Compound 455] | 100 to 10000
10 | CCC(=O)N[C@@H](C(=O)N1CCN(C)C[C@@H]1C)[C@@H](C)c1ccc(NC(=O)[C@@H](NC(=O)c2nonc2CC)[C@H]2CC[C@H](C)CC2)c(F)c1 [Compound 456] | < 10
11 | CCC(=O)N[C@@H](C(=O)N1CCN(C)C[C@H]1C)[C@@H](C)c1ccc(NC(=O)[C@@H](NC(=O)c2nonc2CC)[C@H]2CC[C@H](C)CC2)c(F)c1 [Compound 457] | < 10
12 | CCC(=O)N[C@@H](C(=O)N1CCN(C)CC1(C)C)[C@@H](C)c1ccc(NC(=O)[C@@H](NC(=O)c2nonc2CC)[C@H]2CC[C@H](C)CC2)c(F)c1 [Compound 458] | < 10
13 | CCC(=O)N[C@@H](C(=O)N1CCN(C)[C@@H](C)C1)[C@@H](C)c1ccc(NC(=O)[C@@H](NC(=O)c2nonc2CC)[C@H]2CC[C@H](C)CC2)c(F)c1 [Compound 460] | < 10
14 | CCC(=O)N[C@@H](C(=O)N1CCN(C)C(C)(C)C1)[C@@H](C)c1ccc(NC(=O)[C@@H](NC(=O)c2nonc2CC)[C@H]2CC[C@H](C)CC2)c(F)c1 [Compound 464] | < 10
15 | CCC(=O)N[C@@H](C(=O)N1CCN(CC)[C@@H](C)C1)[C@@H](C)c1ccc(NC(=O)[C@@H](NC(=O)c2nonc2CC)[C@H]2CC[C@H](C)CC2)c(F)c1 [Compound 467] | < 10
16 | CCC(=O)N[C@@H](C(=O)N1CCC(F)(F)CC1)[C@@H](C)c1ccc(NC(=O)[C@@H](NC(=O)c2nonc2CC)[C@H]2CC[C@H](C)CC2)c(F)c1 [Compound 468] | 10 to 100
17 | CCn1nccc1C(=O)N[C@H](C(=O)Nc1ccc([C@H](C)[C@@H](NC(=O)C2CC2)C(=O)N2CCN(C)CC2)cc1F)[C@H]1CC[C@H](C)CC1 [Compound 469] | 10 to 100
18 | CCn1nccc1C(=O)N[C@H](C(=O)Nc1ccc([C@H](C)[C@@H](NC(=O)[C@@H](C)F)C(=O)N2CCN(C)CC2)cc1F)[C@H]1CC[C@H](C)CC1 [Compound 470] | 10 to 100
